Experimental data reported in paper PMC8689140 (Frontiers in Pharmacology, 2021).

Experiments:
rat VMAT2 = target: T1, rat VMAT2 (Rattus norvegicus, UniProt Q01827); test: [3H]DA uptake assay in rat striatal synaptosomes; format: biochemical
T1 construct: in vitro [^3H]DA uptake assay in rat striatal synaptosomes; from tissue; host or cells: rat striatal synaptosomes / vesicular suspension
Experimental: [^3H]DA (dihydroxyphenylethyethylamine, 3,4-[ring-2,5,6-^3H]; specific activity, 28.0 Ci/mmol) was purchased from Perkin Elmer. […] After drying, the filter plate was sealed with unifilter-96 back sealing tape and added 50 μl of microscint-20 (Perkin Elmer), then sealed the top of the filter plate with TopSeal-A. The radioactivity was measured by a TopCount scintillation counter. GraphPad Prism 5.0 was used to analyze data.

[1] = system: locomotor activity of rats; test: Dose-dependent effects on locomotor activity in rats; format: in vivo, rat; settings: for reduction rate (RR) of locomotion: 0.5-[…] after dosing
Experimental: Before administration, animals were transported to the test room and allowed to acclimate for at least 1 h. Immediately after drug administration, rats were placed into activity chambers to assess their basal locomotor activity using the TopScan monitoring system. The total travel distance was recorded from 0.5 to 1.5 h after administration in intervals of 10 min.

[2] = system: dopamine receptors, serotonin receptors, adrenergic receptors, dopamine transporter, norepinephrine transporter, five serotonin transporter; test: Multi-target activity screen of SpectrumScreen Panel (Eurofins screen); settings: serotonin transporters, and so on

T1 sequence (Q01827 whole entry): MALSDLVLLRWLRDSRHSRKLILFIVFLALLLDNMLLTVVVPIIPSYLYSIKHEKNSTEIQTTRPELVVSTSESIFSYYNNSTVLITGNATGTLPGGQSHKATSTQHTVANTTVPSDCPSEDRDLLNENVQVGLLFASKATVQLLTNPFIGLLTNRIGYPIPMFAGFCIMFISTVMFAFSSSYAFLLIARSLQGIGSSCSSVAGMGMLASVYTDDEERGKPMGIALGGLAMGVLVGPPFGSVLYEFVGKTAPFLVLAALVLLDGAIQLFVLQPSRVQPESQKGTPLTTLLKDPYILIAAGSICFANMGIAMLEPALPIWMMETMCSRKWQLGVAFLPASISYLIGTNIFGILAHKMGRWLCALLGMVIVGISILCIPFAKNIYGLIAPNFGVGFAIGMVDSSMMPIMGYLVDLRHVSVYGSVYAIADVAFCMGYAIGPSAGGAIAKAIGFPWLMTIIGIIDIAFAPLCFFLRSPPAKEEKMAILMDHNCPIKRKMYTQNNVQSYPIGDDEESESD

In the case of `COc1cc2c(cc1OCC(F)(F)F)CCN1CC(CC(C)C)C(O)CC21` (single isomer, unassigned; (+)) [(+)-13e, (+)-9-(2,2,2-trifluoroethoxy)-α-dihydrotetrabenazine], the IC90 (rat VMAT2; [3H]DA uptake, rat striatal synaptosomes) is reported as 34.1 nM, the “inhibitory effect on [3H]DA uptake stronger than that of HTBZ” value (rat VMAT2; ratio of IC50 vs HTBZ) is reported as “approximately 5 fold” and the starting effective dose ([1]; SD rats, first dose with significant inhibition of locomotor activity vs NS (p < 0.05)) is reported as 0.32 µmol/kg. For the same compound, the “reduction rate (RR) of locomotion” value ([1]; SD rats, single oral gavage 0.32 μmol/kg) was 58.6%, the “reduction rate (RR) of locomotion” value ([1]; SD rats, single oral gavage 1.3 μmol/kg) was 95.5% and the “PD effect stronger than that of VBZ in vivo” value ([1]; rat locomotor activity) was “approximately 4 fold”. For the same compound, the “effects in multi-target activity screen” value [2] was “no effects”.
